Reference: PubChem BioAssay AID248 (DTP/NCI, 2004)
Values joined by “and” are separate entries in the source; they are usually repeats but may differ in a detail not shown here. Equal values may be shown once. Inconclusive results and toxic doses are left out.

System: L1210 leukemia ip in BDF1 mice, survival T/C
Test: NCI In Vivo Anticancer Drug Screen. Data for tumor model L1210 Leukemia (intraperitoneal) in B6D2F1 (BDF1) mice
Details: endpoint: mean survival time, higher = longer survival
Procedure, shortened: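 Tumor was transplanted into mice, which were then dosed with test compound or vehicle alone. Survival was recorded for each group, and the treated figure was expressed relative to the control figure.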

## C[n+]1ccc(Nc2ccc(NC(=O)c3ccc(Nc4cc[n+](C)c5ccc(N)cc45)cc3N)cc2)cc1
dose: 0.25 mg/kg/injection, schedule: Q01DX005 (iv), vehicle: water
  T/C: 104 % of control
dose: 0.5 mg/kg/injection, schedule: Q01DX005 (iv), vehicle: water
  T/C: 97 % of control and 107 % of control
dose: 0.5 mg/kg/injection, schedule: Q01DX009 (ip), vehicle: water
  T/C: 113 % of control
dose: 0.5 mg/kg/injection, schedule: Q03HX008 (ip), vehicle: water
  T/C: 115 % of control
dose: 0.5 mg/kg/injection, schedule: Q03HX016 (ip), vehicle: water
  T/C: 121 % of control
dose: 0.5 mg/kg/injection, schedule: Q03HX024 (sc), vehicle: water
  T/C: 104 % of control
dose: 0.5 mg/kg/injection, schedule: Q04DX003 (iv), vehicle: water
  T/C: 104 % of control
dose: 0.78 mg/kg/injection, schedule: Q01DX009 (ip), vehicle: saline
  T/C: 100 % of control
dose: 1.0 mg/kg/injection, schedule: Q01DX005 (iv), vehicle: water
  T/C: 104 % of control and 105 % of control
dose: 1.0 mg/kg/injection, schedule: Q01DX009 (ip), vehicle: water
  T/C: 118 % of control
dose: 1.0 mg/kg/injection, schedule: Q01DX009 (oral), vehicle: water
  T/C: 109 % of control
dose: 1.0 mg/kg/injection, schedule: Q01DX009 (sc), vehicle: saline with Tween-80
  T/C: 101 % of control
dose: 1.0 mg/kg/injection, schedule: Q01DX009 (sc), vehicle: water
  T/C: 106 % of control
dose: 1.0 mg/kg/injection, schedule: Q03HX016 (ip), vehicle: water
  T/C: 159 % of control
dose: 1.0 mg/kg/injection, schedule: Q03HX024 (ip), vehicle: water
  T/C: 165 % of control
dose: 1.0 mg/kg/injection, schedule: Q03HX024 (oral), vehicle: water
  T/C: 94 % of control and 103 % of control
dose: 1.0 mg/kg/injection, schedule: Q03HX024 (sc), vehicle: water
  T/C: 114 % of control
dose: 1.0 mg/kg/injection, schedule: Q04DX003 (iv), vehicle: water
  T/C: 102 % of control
dose: 1.56 mg/kg/injection, schedule: Q01DX009 (ip), vehicle: saline
  T/C: 114 % of control
dose: 2.0 mg/kg/injection, schedule: Q01DX001 (ip), vehicle: water
  T/C: 106 % of control
dose: 2.0 mg/kg/injection, schedule: Q01DX002 (ip), vehicle: water
  T/C: 110 % of control
dose: 2.0 mg/kg/injection, schedule: Q01DX005 (iv), vehicle: water
  T/C: 115 % of control and 116 % of control
dose: 2.0 mg/kg/injection, schedule: Q01DX009 (ip), vehicle: water
  T/C: 151 % of control and 157 % of control and 205 % of control
dose: 2.0 mg/kg/injection, schedule: Q01DX009 (oral), vehicle: water
  T/C: 107 % of control
dose: 2.0 mg/kg/injection, schedule: Q03HX008 (ip), vehicle: water
  T/C: 155 % of control and 170 % of control
dose: 2.0 mg/kg/injection, schedule: Q03HX016 (ip), vehicle: water
  T/C: 158 % of control and 216 % of control
dose: 2.0 mg/kg/injection, schedule: Q03HX024 (ip), vehicle: water
  T/C: 225 % of control and 236 % of control
dose: 2.0 mg/kg/injection, schedule: Q03HX024 (oral), vehicle: water
  T/C: 102 % of control and 103 % of control
dose: 2.0 mg/kg/injection, schedule: Q03HX024 (sc), vehicle: water
  T/C: 180 % of control
dose: 2.0 mg/kg/injection, schedule: Q04DX003 (ip), vehicle: water
  T/C: 105 % of control
dose: 2.0 mg/kg/injection, schedule: Q04DX003 (iv), vehicle: water
  T/C: 104 % of control
dose: 4.0 mg/kg/injection, schedule: Q01DX001 (ip), vehicle: water
  T/C: 116 % of control
dose: 4.0 mg/kg/injection, schedule: Q01DX002 (ip), vehicle: water
  T/C: 117 % of control
dose: 4.0 mg/kg/injection, schedule: Q01DX009 (ip), vehicle: water
  T/C: 243 % of control and 248 % of control and 456 % of control
dose: 4.0 mg/kg/injection, schedule: Q01DX009 (oral), vehicle: water
  T/C: 106 % of control
dose: 4.0 mg/kg/injection, schedule: Q01DX009 (sc), vehicle: water
  T/C: 214 % of control
dose: 4.0 mg/kg/injection, schedule: Q03HX008 (ip), vehicle: water
  T/C: 165 % of control and 252 % of control
dose: 4.0 mg/kg/injection, schedule: Q03HX016 (ip), vehicle: water
  T/C: 178 % of control and 326 % of control
dose: 4.0 mg/kg/injection, schedule: Q03HX024 (ip), vehicle: water
  T/C: 233 % of control and 329 % of control
dose: 4.0 mg/kg/injection, schedule: Q03HX024 (oral), vehicle: water
  T/C: 100 % of control and 110 % of control
dose: 4.0 mg/kg/injection, schedule: Q03HX024 (sc), vehicle: water
  T/C: 203 % of control
dose: 4.0 mg/kg/injection, schedule: Q04DX003 (ip), vehicle: water
  T/C: 120 % of control
dose: 4.0 mg/kg/injection, schedule: Q04DX003 (iv), vehicle: water
  T/C: 102 % of control
dose: 6.25 mg/kg/injection, schedule: Q01DX009 (ip), vehicle: saline
  T/C: 161 % of control
dose: 8.0 mg/kg/injection, schedule: Q01DX001 (ip), vehicle: water
  T/C: 116 % of control
dose: 8.0 mg/kg/injection, schedule: Q01DX005 (ip), vehicle: water
  T/C: 256 % of control
dose: 8.0 mg/kg/injection, schedule: Q01DX009 (ip), vehicle: water
  T/C: 326 % of control and 417 % of control and 436 % of control
dose: 8.0 mg/kg/injection, schedule: Q01DX009 (oral), vehicle: water
  T/C: 98 % of control and 103 % of control and 111 % of control
dose: 8.0 mg/kg/injection, schedule: Q01DX009 (sc), vehicle: water
  T/C: 195 % of control
dose: 8.0 mg/kg/injection, schedule: Q03HX008 (ip), vehicle: water
  T/C: 178 % of control
dose: 8.0 mg/kg/injection, schedule: Q03HX024 (ip), vehicle: water
  T/C: 153 % of control
dose: 8.0 mg/kg/injection, schedule: Q03HX024 (oral), vehicle: water
  T/C: 100 % of control
dose: 8.0 mg/kg/injection, schedule: Q03HX024 (sc), vehicle: water
  T/C: 163 % of control
dose: 8.0 mg/kg/injection, schedule: Q04DX003 (ip), vehicle: water
  T/C: 150 % of control
dose: 10.0 mg/kg/injection, schedule: Q01DX009 (oral), vehicle: saline with Tween-80
  T/C: 100 % of control
dose: 12.5 mg/kg/injection, schedule: Q01DX009 (ip), vehicle: saline
  T/C: 231 % of control
dose: 16.0 mg/kg/injection, schedule: Q01DX001 (ip), vehicle: water
  T/C: 161 % of control
dose: 16.0 mg/kg/injection, schedule: Q01DX002 (ip), vehicle: water
  T/C: 155 % of control
dose: 16.0 mg/kg/injection, schedule: Q01DX005 (ip), vehicle: water
  T/C: 225 % of control
dose: 16.0 mg/kg/injection, schedule: Q01DX009 (ip), vehicle: water
  T/C: 382 % of control
dose: 16.0 mg/kg/injection, schedule: Q01DX009 (oral), vehicle: water
  T/C: 98 % of control and 103 % of control
dose: 16.0 mg/kg/injection, schedule: Q01DX009 (sc), vehicle: water
  T/C: 230 % of control
dose: 16.0 mg/kg/injection, schedule: Q04DX003 (ip), vehicle: water
  T/C: 167 % of control and 168 % of control and 190 % of control
dose: 16.0 mg/kg/injection, schedule: Q08DX002 (ip), vehicle: water
  T/C: 171 % of control
dose: 20.0 mg/kg/injection, schedule: Q01DX009 (oral), vehicle: saline with Tween-80
  T/C: 104 % of control
dose: 25.0 mg/kg/injection, schedule: Q01DX001 (ip), vehicle: saline
  T/C: 108 % of control
dose: 25.0 mg/kg/injection, schedule: Q01DX009 (ip), vehicle: saline
  T/C: 364 % of control
dose: 32.0 mg/kg/injection, schedule: Q01DX009 (oral), vehicle: water
  T/C: 100 % of control
dose: 50.0 mg/kg/injection, schedule: Q01DX001 (ip), vehicle: saline
  T/C: 161 % of control
dose: 50.0 mg/kg/injection, schedule: Q01DX009 (ip), vehicle: saline
  T/C: 331 % of control
dose: 64.0 mg/kg/injection, schedule: Q01DX009 (oral), vehicle: water
  T/C: 106 % of control and 109 % of control
dose: 80.0 mg/kg/injection, schedule: Q01DX009 (oral), vehicle: saline with Tween-80
  T/C: 106 % of control
dose: 160.0 mg/kg/injection, schedule: Q01DX009 (oral), vehicle: saline with Tween-80
  T/C: 101 % of control
dose: 200.0 mg/kg/injection, schedule: Q01DX001 (ip), vehicle: saline
  T/C: 257 % of control

## Cc1ccc(NC(=O)OC/C=C/c2ccccc2)c(Cl)c1
dose: 100.0 mg/kg/injection, schedule: Q01DX009 (ip), vehicle: Klucel (hydroxypropylcellulose) (HPC)
  T/C: 99 % of control
dose: 200.0 mg/kg/injection, schedule: Q01DX009 (ip), vehicle: Klucel (hydroxypropylcellulose) (HPC)
  T/C: 97 % of control

## CCOC(=O)CN(CC)CC(=O)OCC
dose: 75.0 mg/kg/injection, schedule: Q01DX009 (ip), vehicle: saline with Tween-80
  T/C: 107 % of control
dose: 100.0 mg/kg/injection, schedule: Q04DX003 (ip), vehicle: saline with Tween-80
  T/C: 93 % of control
dose: 150.0 mg/kg/injection, schedule: Q01DX009 (ip), vehicle: saline with Tween-80
  T/C: 107 % of control
dose: 200.0 mg/kg/injection, schedule: Q04DX003 (ip), vehicle: saline with Tween-80
  T/C: 98 % of control
dose: 300.0 mg/kg/injection, schedule: Q01DX009 (ip), vehicle: saline with Tween-80
  T/C: 109 % of control
dose: 400.0 mg/kg/injection, schedule: Q04DX003 (ip), vehicle: saline with Tween-80
  T/C: 101 % of control
